According to patent US4746667A, “Pharmaceutical composition containing 2-(2-benzimidazolyl thiomethyl) pyridine” (priority 1981, dated 1988):

Tested on: gastric acid secretion
Experiment: Gastric Acid Secretion Inhibiting Effect on Conscious Dogs
Assay type: in vivo
Details: Canis lupus familiaris; dose 2 μmol/kg, oral (stomach tube), free base suspended in 0.5% Methocel; histamine-stimulated conscious Heidenhain pouch dogs; gastric juice collected 3 hours
Experimental: Gastric Acid Secretion Inhibiting Effect on Conscious Dogs
Chronic gastric fistula dogs (Heidenhain pouch dogs) were used. These dogs have been surgically provided with a gastric cannula in the pouch. Following a 4 weeks' recovery period after surgery, tests were performed once a week on each dog. Food and water were withdrawn 18 hours before each test.
Gastric acid secretion was induced by continuous infusion of histamine at individual doses (100-300 μmol/kg, h), resulting in submaximal secretion of gastric acid. At least 2 hours after onset of stimulation, when the gastric acid secertion had reached a steady level, the test compounds in the form of free base suspended in 0.5% Methocel® (90 HG, 15.000, Dow Chem. corp.), were given orally by stomach tube. The gastric juice was collected by free flow from the gastric cannula in consecutive 30 minutes samples for 3 hours. The samples were titrated to pH 7.0 with 0.1M NaOH using a Radio-meter automatic titrator and the acid output was calculated.
The percent inhibition of acid secretion was calculated by comparing in each dog the acid output in the tests to the acid output in control tests when only the vehicle was given.

In order of falling inhibition in vivo at 2 µmol/kg:
1. COC(=O)c1cc2nc(SCc3ncc(C)c(OC)c3C)[nH]c2cc1C [5-COOCH3,6-CH3, H, CH3, OCH3, CH3, 2-[2-(3,5-dimethyl-4-methoxy)pyridylmethylthio]-(5-carbomethoxy-6-methyl)benzimidazole]  80%
2. COc1ccc2[nH]c(SCc3ncc(C)c(C)c3C)nc2c1 [5-OCH3, H, H, CH3, CH3, CH3]  75%
3. COc1ccc2[nH]c(SCc3ncc(C)c(OC)c3C)nc2c1 [5-OCH3, H, H, CH3, OCH3, CH3, 2-[2-(3,5-dimethyl-4-methoxy)pyridylmethylthio]-(5-methoxy)benzimidazole]  75%
4. COc1c(C)cnc(CSc2nc3cc(C)ccc3[nH]2)c1C [5-CH3, H, H, CH3, OCH3, CH3]  60%
5. COc1c(C)cnc(CSc2nc3cc(C(C)=O)c(C)cc3[nH]2)c1C [5-COCH3,6-CH3, H, CH3, OCH3, CH3, 2-[2-(3,5-dimethyl-4-methoxy)pyridylmethylthio]-5-COCH3-6-CH3-benzimidazole]  35%

Same assay, conditions: Canis lupus familiaris; dose 8 μmol/kg, oral (stomach tube), free base suspended in 0.5% Methocel; histamine-stimulated conscious Heidenhain pouch dogs; gastric juice collected 3 hours

In order of falling inhibition in vivo at 8 µmol/kg:
1. COc1c(C)cnc(CSc2nc3cc(C(C)=O)ccc3[nH]2)c1C [5-COCH3, H, H, CH3, OCH3, CH3]  90%
2. CC(=O)c1cc2nc(SCc3cc(C)c(C)cn3)[nH]c2cc1C [5-COCH3,6-CH3, H, H, CH3, CH3]  80%
3. COC(=O)c1ccc2[nH]c(SCc3ncc(C)c(OC)c3C)nc2c1 [5-COOCH3, H, H, CH3, OCH3, CH3]  50%
